Measurements as given in patent US8940697B2, “Compositions and methods for the treatment of myocardial ischemia/reperfusion injury with Annexin A1 short peptide” (Duke University, priority 2009, dated 2015).
Marks after values point to notes of the source that are not given here.

Legend:
Male Yorkshire pigs = assay: Pig CPB/CA model of myocardial I/R injury; type: in vivo
Procedure: Pig CPB/CA: Male Yorkshire pigs (32-38 kg) were subjected to 120 min of mild hypothermic CPB, including 60 min of CA using 4:1 blood cardioplegia, and received either ANXA1sp (iv after anesthesia induction and with each dose of cardioplegia, 4 mg/kg total, CA_SP group, n=4) or vehicle (CA_CTRL, n=8). Efficacy endpoints and underlying mechanisms were assessed as described herein.

[1] = test system: adult rat ventricular cardiomyocytes (ARVC); assay: ARVC simulated I/R (oxygen-glucose deprivation/reoxygenation); type: cell-based; settings: for cTnI: 30 μM ANXA1sp, 2 h OGD + 24 h reoxygenation, supernatant; for HFABP / TNFα / Apoptosis / Cell Death: 30 μM, OGD/reoxygenation; for Apoptosis: ELISA; for Cell Death: trypan blue
Procedure: FIG. 4A. Cells were exposed to normal glucose (NG) (a, e), high glucose (HG) (b, f), HG+ANXA1sp (c, g) and HG+Ac2-26 (d, h), respectively, for 24 hours. Cells (e, f, g, h) were washed with deoxygenated glucose-free DMEM medium in an anaerobic chamber that contained a gas mixture of 5% CO2, 10% H2, and 85% N2 and incubated for 2 hours. After oxygen/glucose deprivation (OGD), ARVC cells were cultured in DMEM medium under normoxic conditions in a 5% CO2 incubator for 24 hours. Cells (a, b, c, d) without OGD were used as a control. Cell death was determined by trypan blue staining. FIG. 4B is a graph of the results obtained in FIG. 4A. Specifically, cells were counted in a total of eight random fields in triplicate wells. Values presented are means±SD; n=8.
(§1) Cardiomyocytes isolated from adult rat in both normal and hyperglycemic culture media were exposed directly to ANXA1sp. […] The cardioprotective effects of ANXA1sp was further examined in hyperglycemic exacerbation of myocardial injury due to simulated ischemia/reperfusion in vitro. Adult rat ventricular cardiomyocytes (ARVCs) were treated with/without either ANXA1sp or Ac2-26 in both normo- and hyperglycemic culture media for 24 hours. Cells were washed with deoxygenated glucose-free DMEM medium in an anaerobic chamber that filtrated a gas mixture of 5% CO2-10% H2-85% N2 and incubated for 2 hours. After oxygen/glucose deprivation (OGD), cells were cultured under normoxic conditions in a 5% CO2 incubator for 24 hours. Cells without OGD were used as a positive control. Cell death was determined by trypan blue exclusive staining. Cells were counted in triplicate wells and in eight random fields in each well.
In vitro study: ARVCs from male Sprague-Dawley (SD) rats were incubated in normal or high glucose (25 mM), with and without 30 μM ANXA1sp (Ac-QAW), or with a scrambled peptide (Ac-QWA), respectively for 24 h. Cells were subjected to 2 h oxygen-glucose deprivation (OGD), followed by 24 h reoxygenation in either normo- or hyperglycemic conditions. Cell death was determined histologically (trypan blue exclusion) and biochemically (supernatant levels of cTnI and HFABP, ELISA). Apoptosis was quantified using ELISA (Roche).

[2] = test system: NF-kB activation in human pancreatic cancer cell lines; assay: NF-kB activation in human pancreatic cancer cell lines by ANXA1 N-terminus short peptides; type: cell-based; settings: compared with the other ANXA1 peptides of FIG. 1
Description: FIG. 1 is a graph showing the effect of ANXA1 N-terminus short peptides Ac-QAW, Ac-KQAW (SEQ ID NO:3), Ac-[…] (SEQ ID NO:10), Ac-FLK, Ac-EFLKQAW (SEQ ID NO:6) and Ac-VSEFLKQAW (SEQ ID NO:9) on NF-kB activation in human pancreatic cancer cell lines. Values presented are means±SD; n=5; *P<0.05 and #P<0.001 vs. control (0). Ac=acetylation.

[3] = test system: adult rat ventricular cardiomyocytes (ARVC); assay: Long-term culture survival of adult rat cardiomyocytes in normal or high glucose; type: cell-based; settings: for cardiomyocytes still alive, with rod-shaped morphology: day 26
Description: Cardiomyocytes isolated from adult rats were exposed to ANXAsp (FIG. 3C and FIG. 3D) or the N-terminal 25mer Ac2-26 (FIG. 3E and FIG. 3F) in either normal glucose (NG) or high glucose (HG), respectively, for 26 days, Untreated control cells in normoglycemic and hyperglycemic media are presented in FIG. 3A and FIG. 3B,
as §1

[4] = 4 mg/kg, systemically and in the cardioplegia solution

Substance: Ac-Gln-Ala-Trp [ANXA1sp]
- hemodynamics (Male Yorkshire pigs; 4 mg/kg total): improved hemodynamics
- animals requiring inotropic or vasopressor support (Male Yorkshire pigs; 4 mg/kg total, support substantial in all control animals): none requiring either inotropic or vasopressor support
- left ventricular dysfunction (Male Yorkshire pigs; [4]): significant reduction
- postoperative arrhythmias (Male Yorkshire pigs; [4]): significant reduction
- vasoplegia (Male Yorkshire pigs; [4]): significant reduction
- Apoptosis (Male Yorkshire pigs; CA_SP: 4 mg/kg total): 5.9 ± 2.3 %
- Epinephrine (inotropic support required) (Male Yorkshire pigs; CA_SP: 4 mg/kg total): 0** mcg/6 hs
- Heart Rate (Male Yorkshire pigs; CA_SP: 4 mg/kg total): 135 ± 18 beats/min
- NF-κB activity (Male Yorkshire pigs; CA_SP: 4 mg/kg total): 0.8 ± 0.04 A.U.
- SVI (stroke volume index) (Male Yorkshire pigs; CA_SP: 4 mg/kg total): 36 ± 5 ml/m^2
- TNF-α (Male Yorkshire pigs; CA_SP: 4 mg/kg total): 28.8 ± 6.7 ng/mg protein
- Vasopressin (vasopressor support required) (Male Yorkshire pigs; CA_SP: 4 mg/kg total): 0** U/6 hrs
- Caspase-3 (Male Yorkshire pigs; CA_SP: 4 mg/kg total, iv and with cardioplegia): 137.3 ± 9.8 A.U.
- cardiomyocyte cell death (trypan blue) ([1]; 24 h pretreatment, 2 h OGD, 24 h normoxia, Example 3): significantly decreased cardiomyocyte cell death
- cTnI ([1]; HG_SP: high glucose (25 mM)): 7.8 ± 0.6 ng/mL
- HFABP ([1]; HG_SP: high glucose (25 mM)): 2.0 ± 0.4 ng/mL
- TNFα ([1]; HG_SP: high glucose (25 mM)): 1.2 ± 0.1 ng/mg protein
- Apoptosis ([1]; HG_SP: high glucose (25 mM)): 0.7 ± 0.2 A.U.
- Cell Death ([1]; HG_SP: high glucose (25 mM)): 40.5 ± 11.1 %
- cTnI ([1]; NG_SP: normal glucose): 5.7 ± 0.4 ng/mL
- HFABP ([1]; NG_SP: normal glucose): 2.4 ± 1.4 ng/mL
- TNFα ([1]; NG_SP: normal glucose): 0.84 ± 0.1 ng/mg protein
- Apoptosis ([1]; NG_SP: normal glucose): 0.7 ± 0.2 A.U.
- Cell Death ([1]; NG_SP: normal glucose): 38.6 ± 5.9 %
- cardioprotective efficacy compared with Ac2-26 ([1]; OGD, high glucose, Example 3, FIG. 4): stronger cardioprotective efficacy than Ac2-26
- inhibiting NF-κB activity [2]: most effective at inhibiting NF-κB activity
- protection of cardiomyocytes from cell death ([3]; both normo- and hyperglycemic conditions): significantly protected cardiomyocytes from cell death
- cardiomyocytes still alive, with rod-shaped morphology ([3]; high glucose): ~50%
- cardioprotective effect compared with Ac2-26 ([3]; long-term culture, normal and high glucose): much stronger than that of the commercial annexin A1 N-terminal peptide, Ac2-26
- cardiomyocytes still alive, with rod-shaped morphology ([3]; normal glucose): about 70%
